Assay results reported in PubChem BioAssay (NCI).
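How tested: cells in 96-well plates exposed to compound for 48 hours at five concentrations. Abbreviation: GI50, concentration required for 50% inhibition of growth. TGI marks complete inhibition of growth.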

What was measured:
Assay in all cases: NCI-60 cell line screen, 48 h
[1] = tested on: RPMI-8226 leukemia
[2] = tested on: SK-MEL-28 melanoma
[3] = tested on: KM12 colon
[4] = tested on: BT-549 breast
[5] = tested on: NCI-H23 lung
[6] = tested on: K-562 leukemia
[7] = tested on: CAKI-1 renal
[8] = tested on: UO-31 renal

| SMILES | GI50 [1] | TGI [1] | GI50 [2] | TGI [2] | GI50 [3] | TGI [3] | GI50 [4] | TGI [4] | GI50 [5] | TGI [5] | GI50 [6] | TGI [6] | GI50 [7] | TGI [7] | GI50 [8] | TGI [8] |
| --- | --- | --- | --- | --- | --- | --- | --- | --- | --- | --- | --- | --- | --- | --- | --- | --- |
| ClCc1cccc2c(CCl)cccc12 | 2 µM | 7.41 µM | 10.9 µM | 24.4 µM | 1.55 µM | 3.48 µM | 3.99 µM | 16.7 µM | 5.2 µM | 22.8 µM | 10.5 µM | > 100 µM | 1.48 µM | 4.28 µM | 2.2 µM | 8.87 µM |
| CN1CCC2(CC1)ONC1=NCCN12 | – | – | > 100 µM | > 100 µM | 26.6 µM | > 100 µM | 53.1 µM | > 100 µM | 34.5 µM | > 100 µM | 37.7 µM | > 100 µM | 30.6 µM | 90 µM | 45.3 µM | > 100 µM |
| CC(C)Cn1cnc2c(SCc3ccc(Cl)cc3Cl)nc(N)nc21 | – | 74.8 µM | – | > 100 µM | – | > 100 µM | – | > 100 µM | – | > 100 µM | – | > 100 µM | – | > 100 µM | – | > 100 µM |
| C[C@H](NC(=O)[C@@H](C)N)[C@H](Oc1ccc2c(cnn2-c2ccc(F)cc2)c1)c1ccc2c(c1)OCCO2 | 1.17 µM | 3.75 µM | 1.75 µM | 3.4 µM | 2.13 µM | 5.15 µM | 1.82 µM | 15 µM | 3.93 µM | 15.6 µM | 1.98 µM | 4.7 µM | 1.09 µM | 4.79 µM | 1.39 µM | 3.27 µM |
| COc1cc(/C=C\c2cc(OC)c(OC)c(OC)c2)cc(NC(=O)/C=C/c2cc(OC)c(OC)c(OC)c2)c1OC | 1.36 µM | > 100 µM | 3.51 µM | > 100 µM | 3.42 µM | > 100 µM | 2.92 µM | > 100 µM | 5.27 µM | > 100 µM | – | – | 2.8 µM | > 100 µM | 1.09 µM | > 100 µM |
| CCN(Cc1ccc(Cl)cc1)c1ccc(CO)c(Cl)c1 | 3.27 µM | 32.9 µM | 11.2 µM | 24.2 µM | 11.8 µM | 25.6 µM | 5.02 µM | 19.4 µM | 3.23 µM | 22.8 µM | 1.87 µM | > 45.5 µM | 0.563 µM | 7.45 µM | 2.18 µM | 13.5 µM |
| CCOC(=O)N1CCN(/[N+]([O-])=N/Oc2ccc([N+](=O)[O-])cc2[N+](=O)[O-])CC1 | 0.34 µM | 12.9 µM | 1.82 µM | 6.69 µM | 1.78 µM | 8.56 µM | 2.62 µM | 18.6 µM | 1.82 µM | 3.69 µM | 0.153 µM | 3.72 µM | 0.521 µM | 1.96 µM | 10.6 µM | 23.3 µM |
| Cc1c[n+](=O)c2ccccc2n1[O-] | – | > 100 µM | – | > 100 µM | – | > 100 µM | – | > 100 µM | – | > 100 µM | – | > 100 µM | – | > 100 µM | – | > 100 µM |
